Measurements as given in PubChem BioAssay (NCI).
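Briefly, cells in 96-well plates were exposed to five compound concentrations for 48 h, and endpoints were estimated by linear interpolation. TGI: total growth inhibition.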

What was measured:
Test in all cases: NCI tumour cell line growth inhibition, 48 h
[1] = tested on: DLD-1 colon
[2] = tested on: DMS 114 small cell lung
[3] = tested on: DMS 273 small cell lung
[4] = tested on: HOP-18 NSCLC
[5] = tested on: KM20L2 colon
[6] = tested on: M19-MEL melanoma
[7] = tested on: MCF7 breast
[8] = tested on: P388 leukemia
[9] = tested on: P388/ADR leukemia
[10] = tested on: SN12K1 renal
[11] = tested on: SW-620 colon
[12] = tested on: XF 498 CNS
[13] = tested on: SNB-78 CNS
[14] = tested on: RXF-631 renal
[15] = tested on: LXFL 529 NSCLC

Compound | TGI [1] | TGI [2] | TGI [3] | TGI [4] | TGI [5] | TGI [6] | TGI [7] | TGI [8] | TGI [9] | TGI [10] | TGI [11] | TGI [12] | TGI [13] | TGI [14] | TGI [15]
Cc1ccc(N(O)C(C)(C)C)cc1 | > 100 µM | > 100 µM | > 100 µM | > 100 µM | > 100 µM | > 100 µM | > 100 µM | > 100 µM | > 100 µM | > 100 µM | > 100 µM | > 100 µM |  |  | 
O=NN(CCF)C(=O)NC1CC2CCC1C2 (stereo unspecified) | > 100 µM | > 100 µM | > 100 µM | > 100 µM | > 100 µM | > 100 µM | > 100 µM | 50.3 µM | > 100 µM | > 100 µM | > 100 µM |  | > 100 µM |  | 
C[S+](C)CC1OC(n2cnc3c(N)ncnc32)C(O)C1O (stereo unspecified) | > 225 µM | > 225 µM | > 225 µM |  | > 225 µM | > 225 µM | > 225 µM | > 225 µM | > 22.5 µM | > 225 µM | > 225 µM | > 225 µM | > 225 µM |  | 
COc1ccc2c(c1)OCCc1cn[nH]c1-2 | > 100 µM | > 100 µM | > 100 µM | > 100 µM | > 100 µM | > 100 µM | > 100 µM | > 100 µM | > 100 µM | > 100 µM | > 100 µM | 73.6 µM | > 100 µM |  | 
CN(C)CCNC(=O)c1cccc2cc3cc(O)ccc3nc12 | 4.88 µM | 3.13 µM | 2.52 µM | 3.83 µM | 8.13 µM | 3.68 µM | 6.47 µM | 1.25 µM | 2.33 µM | 2.66 µM | 3.46 µM | 2.51 µM | 18.2 µM |  | 
O=C1Nc2cc([N+](=O)[O-])c(Br)cc2C1=O | 46.5 µM | 33.5 µM | 37.3 µM |  | 31.7 µM | 31.6 µM |  |  |  |  | 38.6 µM | 24.6 µM | 50.1 µM | 33.2 µM | 
COc1ccc2nc3c(c(NCCCN(C)C)c2c1)CCCC3 | 28.4 µM | 28.5 µM | 24.8 µM |  | 22.4 µM | 31 µM |  |  |  |  | 51.5 µM | 20.4 µM | 21.4 µM | 28.7 µM | 28.7 µM
